In patent US5997933A, “N-(3,3-dimethylbutyl)-L-aspartyl-D-α-aminoalkanoic acid N-(S)-1-phenyl-1-alkanamide useful as a sweetening agent” (priority 1996, dated 1999):
Residues, ends and D or L forms follow the SMILES beside them.

Tests used:
[1] = Sweetening potency: taste comparison of aqueous solutions with sucrose control solution (2%, 5% or 10%) by a group of eight experienced people; type: in vivo
Source text: The sweetening potency of the compounds described in the examples has been evaluated by a group of eight experienced people. For this, the compound, in aqueous solution at varying concentrations, is compared, with respect to taste, to a control solution of sucrose of concentration 2%, 5%, or 10%. The sweetening potency of the test compound compared with sucrose then corresponds to the weight ratio between the compound and sucrose for equal sweetening intensity, i.e. when the sweet tastes of the solution of the test compound and the control solution of sucrose are considered by a majority of people to have the same sweetening intensity.

[2] = Accelerated ageing in acidic medium (phosphate buffer pH 3, 70° C.), HPLC of product remaining; type: physicochemical; conditions: aqueous solution, read-out: half-life (time corresponding to 50% degradation) (converted)
Procedure: (§1) The stability of the compounds of the invention and aspartame was measured by determining, using high performance liquid chromatography (HPLC), the amount of product remaining after an accelerated ageing in acidic medium (phosphate buffer at pH 3) or in neutral medium (phosphate buffer at pH 7) and at the temperature of 70° C. The stability of the compound thus tested is evaluated by its half-life (time corresponding to 50% degradation).
Given in the annexed FIG. 1 is a comparative diagram of the stability curves of aspartame (curve 1) and of the N--(3,3-dimethylbutyl)-L-aspartyl-D-α-aminobutyric acid N--(S)-1-phenyl-1-propanamide of the present invention (curve 2) obtained during an accelerated ageing by heating their solutions in acidic medium at pH 3 (phosphate buffer) at 70° C.

[3] = Accelerated ageing in neutral medium (phosphate buffer pH 7, 70° C.), HPLC of product remaining; type: physicochemical; conditions: for half-life: phosphate buffer, read-out: half-life (time corresponding to 50% degradation) (converted)
Procedure: as §1
Given in the annexed FIG. 2 is a comparative diagram of the stability curves of aspartame (curve 1) and of the N-(3,3-dimethylbutyl)-L-aspartyl-D-α-aminobutyric acid N--(S)-1-phenyl-1-propanamide of the invention (curve 2) obtained during an accelerated ageing by heating their solutions in neutral media of pH 7 at 70° C.

[4] = Sweetening comparison with aspartame (equivalent sweetness of solutions / soft drink); type: in vivo; conditions: for concentration of aqueous solution of equivalent sweetening potency: 20 mg/L compound equivalent to 550 mg/L aspartame; for quantity of sweetening agent in one liter of soft drink for replacement: identical organoleptic qualities
Procedure: From the fact of their high sweetening potency, another advantage of the compounds of the invention compared to aspartame is to allow, in their application to food products, the use of very low quantities of active agent. It is therefore for example that it is possible to replace, in one liter of soft drink, 550 mg of aspartame by about 20 mg of the N-(3,3-dimethylbutyl)-L-aspartyl-D-α-aminobutyric acid N--(S)-1-phenyl-1-propanamide of the invention, and to therefore reduce by about 27 times the quantities of sweetening agent consumed, always in maintaining the identical organoleptic qualities.

[5] = cited from earlier work
[6] = with respect to a 2% sucrose solution

Structure (SMILES): CC[C@H](NC(=O)[C@H](NC(=O)[C@H](CC(=O)O)NCCC(C)(C)C)C(C)C)c1ccccc1 [N-(3,3-dimethylbutyl)-L-aspartyl-D-valine N--(S)-1-phenyl-1-propanamide]
- Sweetening potency [1, 6]: about 3,000 times that of sucrose on a weight basis
- Sweetening potency ([1]; with respect to a 2% sucrose solution, listed as Y = (CH3)2 CH, R" = (S) CH(C2 H5) C6 H5): 3,000 times that of sucrose on a wei

Structure (SMILES): COC[C@H](NC(=O)[C@H](NC(=O)[C@H](CC(=O)O)NCCC(C)(C)C)C(C)C)c1ccccc1 [N-(3,3-dimethylbutyl)-L-aspartyl-D-valine N--(S)-1-phenyl-2-methoxy-1-ethanamide]
- Sweetening potency [1, 6]: about 4,000 times that of sucrose on a weight basis
- Sweetening potency ([1]; with respect to a 2% sucrose solution, listed as Y = (CH3)2 CH, R" = (R) CH(CH2 OCH3)C6 H5): 4,000 times that of sucrose on a wei

Structure (SMILES): CC[C@H](NC(=O)[C@@H](CC)NC(=O)[C@H](CC(=O)O)NCCC(C)(C)C)c1ccccc1 [N-(3,3-dimethylbutyl)-L-aspartyl-D-α-aminobutyric acid N--(S)-1-phenyl-1-propanamide]
- Sweetening potency ([1]; by comparison with a 5% solution of sucrose): ~6,000 times that of sucrose on a wei
- Sweetening potency ([1]; by comparison with a 10% solution of sucrose): ~5,000 times that of sucrose on a wei
- Sweetening potency ([1]; with respect to a 2% sucrose solution, listed as Y = C2 H5, R" = (S) CH(C2 H5) C6 H5): 8,000 times that of sucrose on a wei
- half-life [2]: ~72 h
- stability compared with aspartame ([3]; pH 7, 70° C., ratio to aspartame): about 1,700 times
- half-life ([3]; pH 7, 70° C.): ~288 h
- concentration of aqueous solution of equivalent sweetening potency [4]: 20 µg/mL
- sweetening potency compared with aspartame ([4]; 20 mg/L of compound vs 550 mg/L of aspartame, aqueous solution): about 27 times
- quantity of sweetening agent in one liter of soft drink for replacement [4]: about 20 mg
- reduction of quantity of sweetening agent consumed vs aspartame ([4]; soft drink, vs aspartame): about 27 times

Structure (SMILES): CC[C@@H](NC(=O)[C@H](CC(=O)O)NCCC(C)(C)C)C(=O)N[C@@H](COC)c1ccccc1 [N-(3,3-dimethylbutyl)-L-aspartyl-D-α-aminobutyric acid N--(S)-1-phenyl-2-methoxy-1-ethanamide]
- Sweetening potency [1, 6]: about 4,000 times that of sucrose on a weight basis
- Sweetening potency ([1]; with respect to a 2% sucrose solution, listed as Y = C2 H5, R" = (R) CH(CH2 OCH3)C6 H5): 4,000 times that of sucrose on a wei

Structure (SMILES): C[C@@H](NC(=O)[C@H](CC(=O)O)NCCC(C)(C)C)C(=O)NC(C1CC1)C1CC1 [N-(3,3-dimethylbutyl)-L-aspartyl-N-(dicyclopropylcarbinyl)-D-alaninamide]
- sweetening potency (prior art, FR 92 13615) [5, 6]: 2,500 times that of sucrose on a weight basis

Structure (SMILES): CC[C@@H](NC(=O)[C@H](CC(=O)O)NCCC(C)(C)C)C(=O)N[C@@H](C)c1ccccc1 [Y = C2 H5, R" = (S) CH(CH3)C6 H5]
- Sweetening potency [1, 6]: 2,000 times that of sucrose on a wei

Structure (SMILES): COC(=O)[C@H](Cc1ccccc1)NC(=O)[C@@H](N)CC(=O)O [aspartame, L-aspartyl-L-phenylalanine methyl ester, reference compound] (HELM PEPTIDE1{D.F.[CO[*:1]]}$$$$V2.0)
- sweetening potency (prior art) ([5]; aspartame, background, sucrose concentration not stated): 120 to 180 times that of sucrose on a weight basis
- half-life [2]: ~24 h
- stability in neutral solution ([3]; neutral solution, pH about 7): very little stable
- half-life ([3]; pH 7, 70° C.): 0.167 h
- concentration of aqueous solution of equivalent sweetening potency [4]: 550 µg/mL
- quantity of sweetening agent in one liter of soft drink for replacement [4]: 550 mg
